Series [1] deals with Candida albicans (ATCC90028). Kind of series: Broth dilution anti-fungal susceptibility (NCCLS M27-A2), MIC. The format is cell-based. As to conditions: for MIC: Candida albicans; for inhibitory activity against C. albicans compared to chlorogenic acid: comparison in words, from Table 3. How it is done: (§1) The anti-fungal activity of the compounds according to the invention were evaluated against Candida albicans (ATCC90028), Cryptococcus neoformans (ATCC32045), and Aspergillus fumigatus (ATCC13073) according to NCCLS guidelines (NCCLS reference method for broth dilution anti-fungal susceptibility testing of yeasts; approved standard-second edition, M27-A2, National Committee for Clinical Laboratory Standards, Villanova, Pa. 2003; and NCCLS reference method for broth dilution anti-fungal susceptibility testing of filamentous fungi; approved standard, M38-A, National Committee for Clinical Laboratory Standards, Villanova, Pa. 2002).
(§2) The medium required for the evaluation of anti-fungal activity was prepared as follows. RPMI 1640 broth+MOPS, pH adjusted and filter sterilized. Sabouraud Dextrose Agar (SDA) plates were used for growing fungi.
(§3) All test or candidate compounds were prepared as 5 mg/ml stock solutions in DMSO and further diluted according to the NCCLS guidelines with sterile water or appropriate diluent. A working stock of 256 μg/ml was used to prepare 1:2 serial dilutions in 96-well plates.
(§4) The inoculums of fungi were prepared by making a direct sterile water suspension of colonies/spores from SDA plates. 0.1% Tween 20 was used for A. fumigatus for better dispersal of spores in suspension. For C. albicans and C. neoformans overnight cultures were used. A. fumigatus required longer incubation. Each fungal suspension was adjusted to read between 70 and 75% transmittance at 530 nm (0.5 McFarland Standard). These suspensions were further diluted 1/1000 in appropriate broth for inoculating the 96-well plates.
(§5) All plates were incubated at 35° C. for the following times: 18 hours to 24 hours for C. albicans, 48 hours for A. fumigatus, and 48 to 72 hours for C. neoformans.
In general terms: Dilution methods test growth across graded concentrations, often in twofold steps.

For a further series, the system named is Candida krusei ATCC6258. Briefly: Broth dilution anti-fungal susceptibility, MIC (as in Example 24). As to conditions: for MIC: Pichia kudriavzevii, ATCC6258, read-out: MIC C. krusei; for inhibitory activity against C. krusei compared to chlorogenic acid: comparison in words, from Table 3. The class given is cell-based.
The subject of another series is brine shrimp. The class given is in vivo. As to conditions: for % BL (brine shrimp lethality): at 100 μg/ml; for toxicity on brine shrimp compared to chlorogenic acid: comparison in words, from Table 2. How it is done:
The general in vitro toxicity of these compounds can be tested using the Brine Shrimp Lethality assay, as described in Mclaughlin, J. L. in Methods in Plant Biochemistry. Ed. K. Hostettmann, Academic Press, London, 1991; Vol. 6, pp. 1-32. Typically, candidate compounds are diluted in seawater to a suitable concentration and added to second instar larvae of Artemia salina. After a suitable period of time, for example 24 hours, the survivors are counted. In vitro acute toxicity testing of a compound of Formula I can also be performed using mammalian cell lines (see, for example, Ekwall, B., Ann. N.Y. Acad. Sci., (1983) 407:64-77). Selection of an appropriate cell line is dependent on the potential application of the candidate compound and can be readily determined by one skilled in the art.
To test the general toxicity of these compounds, Brine Shrimp Lethality assay was carried out according to Mclaughlin, J. L. in Methods in Plant Biochemistry. Ed. K. Hostettmann, Academic Press, London, 1991; Vol. 6, pp. 1-32. The compounds were tested at 100 μg/ml.

Series [2] has as its system Cryptococcus neoformans (ATCC32045). Briefly: Broth dilution anti-fungal susceptibility (NCCLS M27-A2), MIC. The format is cell-based. As to conditions: Table 1, MICs read at 80% inhibition, 35° C., 48 to 72 hours, tested 0.12 to 64 μg/ml. As for the experimental part:
as §1, §2, §3, §4, §5

In series [3] the test system is Aspergillus fumigatus (ATCC13073). Kind of series: Broth dilution anti-fungal susceptibility of filamentous fungi (NCCLS M38-A), MIC. The class given is cell-based. As to conditions: Table 1, MICs read at 80% inhibition, 35° C., 48 hours, tested 0.12 to 64 μg/ml. How it is done:
as §1, §2, §3, §4, §5

The mark [4] stands for this setting: Table 3 (Example 26), MICs read at 80% inhibition, 0.12 to 64 μg/ml.
Setting [5] is: ATCC90028, Table 3 (Example 26, additional testing), MICs read at 80% inhibition, 0.12 to 64 μg/ml, read-out: MIC C. albicans.
Setting [6] is: ATCC90028, Table 1, MICs read at 80% inhibition, 35° C., 18 to 24 hours, tested 0.12 to 64 μg/ml.

Values after ≈ are worked out from the molar mass of the structure shown. Where two headings read alike, the source gives them in different places.

Regarding `C[C@@H]1[C@H](O)[C@@H](C)/C=C/C=C/C=C/C=C/C=C/C=C/C=C/[C@H](O[C@@H]2O[C@H](C)[C@@H](O)[C@H](N)[C@@H]2O)C[C@@H]2O[C@](O)(C[C@@H](O)C[C@@H](O)[C@H](O)CC[C@@H](O)C[C@@H](O)CC(=O)O[C@H]1C)C[C@H](O)[C@H]2C(=O)O` [Amphotericin B, reference compound], the “MIC C. albicans” value in series [1] (Table 3 (Example 26, additional testing), MICs read at 80% inhibition, 0.12 to 64 μg/ml) came to 0.5 µg/mL (≈ 0.541 µM). Further, in the series on Candida krusei ATCC6258 (setting [4]), the “MIC C. krusei” value was 1 µg/mL (≈ 1.08 µM).

For `O=C(/C=C/c1ccc(O)c(O)c1)O[C@@H]1C[C@](O)(C(=O)O)C[C@@H](O)[C@H]1O` [Chlorogenic acid], the MIC (in series [1] (setting [5]); in the series with Candida krusei ATCC6258 (setting [4])) was over 64 µg/mL in each case. The “% BL (brine shrimp lethality)” value in the series with brine shrimp is listed as 100%.

Consider `CCCCCCCCOc1ccc(NC(=O)C(NC(=O)C2(O)CC(O)C(O)C(OC(=O)/C=C/c3ccc(O)c(O)c3)C2)C(C)OC(C)(C)C)cc1` (centres unmarked) [Compound 8], for which the minimum inhibitory concentration (MIC) in series [1] (setting [6]) was 2 µg/mL (≈ 2.8 µM); in series [1] (setting [5]), 4 µg/mL (≈ 5.6 µM); in series [2] it was 1 µg/mL (≈ 1.4 µM); in series [3] it was over 64 µg/mL; in the series with Candida krusei ATCC6258 (setting [4]), 2 µg/mL (≈ 2.8 µM). Further, in series [1], the “inhibitory activity against C. albicans compared to chlorogenic acid” value is given as “more potent inhibitory activity”. Also, the “% BL (brine shrimp lethality)” value in the series with brine shrimp came out at 50.0%. The “toxicity on brine shrimp compared to chlorogenic acid” value in the series on brine shrimp is given as “less toxicity”. Further, the “inhibitory activity against C. krusei compared to chlorogenic acid” value in the series on Candida krusei ATCC6258 was “more potent inhibitory activity”.

In the case of `CCCCCCCCOc1ccc(NC(=O)C(NC(=O)C2(O)CC(O)C(O)C(OC(=O)/C=C/c3ccc(O)c(O)c3)C2)C(C)O)cc1` (centres unmarked) [Compound 12], the MIC in series [1] (setting [6]) was 8 µg/mL (≈ 12.1 µM); in series [1] (setting [5]), 4 µg/mL (≈ 6.07 µM); in series [2], 2 µg/mL (≈ 3.04 µM); in series [3] it was over 64 µg/mL; in the series with Candida krusei ATCC6258 (setting [4]), 2 µg/mL (≈ 3.04 µM). For the same compound, the “inhibitory activity against C. albicans compared to chlorogenic acid” value in series [1] was “more potent inhibitory activity”. Also, the “% BL (brine shrimp lethality)” value with brine shrimp turned out to be 12.5%. Moreover, the “toxicity on brine shrimp compared to chlorogenic acid” value with brine shrimp was “less toxicity”. Further, the “inhibitory activity against C. krusei compared to chlorogenic acid” value in the series with Candida krusei ATCC6258 is “more potent inhibitory activity”.

A word on the MIC: it is the least concentration at which growth counts as inhibited.
